In assay [1] the test system is Adjuvant Arthritis model in the Rat. As to the kind of experiment: Adjuvant Arthritis model in the Rat (paw swelling). Format: in vivo. The conditions noted are these: Lewis rats; for inhibition in vivo at 10 mg/kg: Rattus norvegicus, ip, 384 h, 10 mg/kg i.p., days 0, 1, 2, 5, 7, 9, 12 and 14, day 16 vs day 0, read-out: Inhibition of the swelling (%), after administration of 10 mg/kg i.p.; for Inhibition of the swelling (%), after administration of 10 mg/kg i.p.: days 0, 1, 2, 5, 7, 9, 12 and 14, day 16 vs day 0. As to the method:
Adjuvant Arthritis model in the Rat
Freund's adjuvant (FA) is prepared by addition of 10 mg/ml of heat-killed Mycobacterium butyricum to extra-heavy mineral oil. Lewis rats receive a 0.1 ml injection of FA (1 mg/animal) subcutaneously in the right hind paw. An acute inflammation takes place there, which is characterized by reddening, edema and a predominant neutrophilic cell infiltration (primary reaction). Tumescent areas in the treated paw on day 5 are followed between day 10-12 by an increase in the swelling (chronic inflammatory reaction) and the occurrence of a swelling in the opposite untreated paw (secondary immune response).
The cell infiltration of the chronic inflammation and the second immune response are mainly mononuclear, which indicates the presence of T-cell mediated immunity. The animals are observed daily, and the swelling is measured in millimeters on days 12 and 16 using a hand-adjustable micrometer. The swelling reaches its peak on the 16th day, on which the animals are sacrificed and tissue samples are taken for histological evaluation.
The extent of the swelling is determined by calculation of the greatest difference in the malleolus diameter between the 16th and the 0th day.
The animals receive the compounds according to the invention in a suspension of 5% polyethylene glycol and 0.5% Tween 80 in phosphate buffer solution p.o. or i.p. on days 0, 1, 2, 5, 7, 9, 12 and 14 [cf. for this purpose L. Sokoloff, 1984, Int. Rev. Exp. Pathol. 26, 107; M. E. J. Bittingham et al., 1989, J. Exp. Med. 171, 339; K. M. Conholly et al., 1989, Agents and Actions 27, 328].

The test system of assay [2] is human T cells. As to the kind of experiment: Inhibition of 5-HT-dependent T Cell Proliferation. The following applies: monocyte-free human T cells stimulated with PWM and 5-HT, 3H-thymidine incorporation, 7 days. It counts as cell-based. From the text:
The in vitro activity of the compounds according to the invention results from their capability to inhibit T cell proliferation, which is previously stimulated by serotonin.
Inhibition of 5-HT-dependent T Cell Proliferation
Peripheral mononuclear blood cells (PBMC) are obtained from the buffy coat of the blood of healthy subjects. After isolation by means of isolymph gradients (Pharmacia), the PBMC are washed twice and used directly. Purified T cells are obtained by E rosette formation with sheep erythrocytes [cf. Blue, M.-L. , J. F. Daley, H. Levine, K. A. Craig and S. F. Schlossmann, 1986, Biosynthesis and surface expression of T8 by peripheral blood T4+cells in vitro, J. Immunol. 137, 1202]. Monocytes are partially removed by adhesion to tissue culture plates or flasks. PBMC, T cells or purified T cells (depleted in monocytes) at 5×10^5 /ml, 100 μl/well are cultured in RPMI 1640 medium with 10% fetal calf serum (GIBCO) and L-glutamine in 96-well microculture plates (Becton--Dickinson)under a 5% CO2 atmosphere at 37° C. for 7 days. The cultures are treated with 1 μCi of ^3 H-thymidine for 6 h on the 7th day and collected on filter paper, and the incorporated radioactivity is determined by means of liquid scintillation counting.
The test substances are dissolved in 10 mM HCl in order to achieve a final concentration of 1 mM in each case. The compounds are diluted serially 3×with medium in order to obtain a final concentration between 33 μM-0.1 μM. PWM (1:200, pokeweed mitogen) and 5-HT (100 μm, serotonin), which contain the test substances, are added to monocyte-free human T cells. The positive control (maximum proliferation) is obtained from cultures containing T cells, PWM and 5-HT. The negative control (minimal proliferation) is obtained from cultures containing T cells and PWM without 5-HT. The inhibitory activity of the test substances is expressed as the IC50 in μM. (see also WO 92/04015)
(Incorporation of labelled thymidine or its analogues reports DNA synthesis.)

pIC50: −log10 of the molar value.

The term pIC50 denotes the negative decadic logarithm of the IC50, by convention in mol/L. Read a high pIC50 as a low IC50.

As to `O=C1C2C3c4ccccc4C(c4ccccc43)C2C(=O)N1CCCN1CCN(c2ccc(Cl)cc2)CC1` (stereo not shown) [Example 2], the inhibition in vivo at 10 mg/kg in assay [1] came out at 4%.

On to `Cc1ccc(N2CCN(CCCN3C(=O)C4C5c6ccccc6C(c6ccccc65)C4C3=O)CC2)cc1` (stereo not shown) [Example 11], for which the inhibition in vivo at 10 mg/kg in assay [1] was 32%. In addition, the pIC50 in assay [2] (Homo sapiens, T-cell) was less than 5.00. The like results for `CC12c3ccccc3C(c3ccccc31)C1C(=O)N(CCCN3CCN(c4ccccc4)CC3)C(=O)C12` (stereo not shown) [Example 29] were, in that order, 24% and less than 5.00. Regarding `CC12c3ccccc3C(c3ccccc31)C1C(=O)N(CCCN3CCN(c4ccc(Cl)cc4)CC3)C(=O)C12` (stereo not shown) [Example 30], in assay [1], the inhibition in vivo at 10 mg/kg is 47%. Moreover, the pIC50 in assay [2] (Homo sapiens, T-cell) was 5.30. For the compound `O=C1C2C3c4ccccc4C(CO)(c4ccccc43)C2C(=O)N1CCCN1CCN(c2ccc(F)cc2)CC1` (stereo not shown) [Example 33], the inhibition in vivo at 10 mg/kg in assay [1] is 33%. The same compound had a negative-log IC50 (pIC50) in assay [2] (Homo sapiens, T-cell) of less than 5.00. Turning to `CC12C(=O)N(CCCN3CCN(c4ccccc4)CC3)C(=O)C1C1c3ccccc3C2c2ccccc21` (stereo not shown) [Example 39], in assay [1], the inhibition in vivo at 10 mg/kg was 20%. In assay [2] (Homo sapiens, T-cell), this compound gave a pIC50 of less than 5.00.

`CC12C(=O)N(CCCN3CCN(c4ccc(F)cc4)CC3)C(=O)C1C1c3ccccc3C2c2ccccc21` (stereo not shown) [Example 40]: the inhibition in vivo at 10 mg/kg in assay [1] worked out at 29%. Further, the pIC50 in assay [2] (Homo sapiens, T-cell) was 5.30. The like results for `Fc1ccc(N2CCN(CCCN3CC4C5c6ccccc6C(c6ccccc65)C4C3)CC2)cc1` (stereo not shown) [Example 58, 13-{3-[4-(4-Fluorophenyl)-piperazin-1-yl]propyl}-9,10,11,12,14,15-hexahydro-9,10[3', 4']pyrroloanthracene] were, in that order, 40% and 5.30.

As for `Clc1ccc(N2CCN(CCCN3CC4C5c6ccccc6C(c6ccccc65)C4C3)CC2)cc1` (stereo not shown) [Example 59], the “Inhibition of the swelling (%), after administration of 10 mg/kg i.p.” value in assay [1] is 53%. This compound had a pIC50 in assay [2] (Homo sapiens, T-cell) of 5.52. `c1ccc(N2CCN(CCN3CC4C5c6ccccc6C(c6ccccc65)C4C3)CC2)cc1` (stereo not shown) [Example 60]: the inhibition in vivo at 10 mg/kg in assay [1] was 40%. The negative-log IC50 (pIC50) in assay [2] (Homo sapiens, T-cell) was 5.30. The like results for `c1ccc(N2CCN(CCCN3CC4C5c6ccccc6C(c6ccccc65)C4C3)CC2)cc1` (stereo not shown) [Example 61] were, in that order, 50% and 5.30. For `c1ccc(N2CCN(CCCCN3CC4C5c6ccccc6C(c6ccccc65)C4C3)CC2)cc1` (stereo not shown) [Example 62] the same measures were 90% and 5.30. With `c1ccc(N2CCN(CCCCCN3CC4C5c6ccccc6C(c6ccccc65)C4C3)CC2)cc1` (stereo not shown) [Example 63], the inhibition in vivo at 10 mg/kg in assay [1] was determined as 26%. Also, the pIC50 in assay [2] (Homo sapiens, T-cell) is 6.30. Turning to `c1ccc(N2CCN(CCCCCCN3CC4C5c6ccccc6C(c6ccccc65)C4C3)CC2)cc1` (stereo not shown) [Example 64], in assay [1], the inhibition in vivo at 10 mg/kg is 76%. The compound also showed a pIC50 in assay [2] (Homo sapiens, T-cell) of 6.00. The like results for `COc1ccccc1N1CCN(CCCCN2CC3C4c5ccccc5C(c5ccccc54)C3C2)CC1` (stereo not shown) [Example 71] were, in that order, 82% and 5.30. The like results for `Fc1ccccc1N1CCN(CCCCN2CC3C4c5ccccc5C(c5ccccc54)C3C2)CC1` (stereo not shown) [Example 72] were, in that order, 87% and 5.70. The like results for `Cc1ccc(N2CCN(CCCCN3CC4C5c6ccccc6C(c6ccccc65)C4C3)CC2)cc1` (stereo not shown) [Example 74] were, in that order, 76% and 6.22.

Take `Clc1ccccc1N1CCN(CCCN2CC3C4c5ccccc5C(c5ccccc54)C3C2)CC1` (stereo not shown) [Example 82]: in assay [1], the inhibition in vivo at 10 mg/kg was 35%. The same compound had a pIC50 in assay [2] (Homo sapiens, T-cell) of 5.30. As for `CCOc1ccccc1N1CCN(CCCN2CC3C4c5ccccc5C(c5ccccc54)C3C2)CC1` (stereo not shown) [Example 87], the inhibition in vivo at 10 mg/kg in assay [1] was 22%. The compound further showed a pIC50 in assay [2] (Homo sapiens, T-cell) of 5.30. For `Cc1cccc(C)c1N1CCN(CCCN2CC3C4c5ccccc5C(c5ccccc54)C3C2)CC1` (stereo not shown) [Example 88] the same measures were 73% and 6.00. For `Cc1ccc(N2CCN(CCCN3CC4C5c6ccccc6C(c6ccccc65)C4C3)CC2)c(C)c1` (stereo not shown) [Example 90] the same measures were 45% and 5.30.

For the compound `Fc1ccc(N2CCN(CCCN3CC4C5c6ccccc6C(Cl)(c6ccccc65)C4C3)CC2)cc1` (stereo not shown) [Example 100], in assay [2] (Homo sapiens, T-cell), the pIC50 is 5.70. Regarding `NCC12c3ccccc3C(c3ccccc31)C1CN(CCCN3CCN(c4ccc(F)cc4)CC3)CC12` (stereo not shown) [Example 101], the pIC50 in assay [2] (Homo sapiens, T-cell) was 6.00. Still for that read-out and setting: with `C=CC12c3ccccc3C(c3ccccc31)C1CN(CCCN3CCN(c4ccc(F)cc4)CC3)CC12` (stereo not shown) [Example 102] the figure was 5.70. Same read-out and setting: with `Fc1ccc(N2CCN(CCCN3CC4C5c6ccccc6C(C=Cc6ccccc6)(c6ccccc65)C4C3)CC2)cc1` (stereo not shown) [Example 103] the figure was 5.70; with `CC12CN(CCCN3CCN(c4ccccc4)CC3)CC1C1c3ccccc3C2c2ccccc21` (stereo not shown) [Example 104], 5.70; with `CC12CN(CCCN3CCN(c4ccc(F)cc4)CC3)CC1C1c3ccccc3C2c2ccccc21` (stereo not shown) [Example 105], 5.70. Still for that read-out and setting: then `COc1cc(N2CCN(CCCN3CC4C5c6ccccc6C(c6ccccc65)C4C3)CC2)cc(OC)c1OC` (stereo not shown) [Example 106], with 6.30. `COC(OC)C12c3ccccc3C(c3ccccc31)C1CN(CCCN3CCN(c4ccc(F)cc4)CC3)CC12` (stereo not shown) [Example 107]: the pIC50 in assay [2] (Homo sapiens, T-cell) is 6.00.

For `Clc1ccc(N2CCN(CCCN3CC4C5c6ccccc6C(c6ccccc65)C4C3)CC2)cc1` (stereo not shown) [Example 108], in assay [1], the “Inhibition of the swelling (%), after administration of 10 mg/kg i.p.” value is recorded as 55%. Moreover, in assay [2], the pIC50 was 5.40. On to `Clc1ccc(N2CCN(CCCN3CC4C5c6ccccc6C(c6ccccc65)C4C3)CC2)cc1` (stereo not shown) [Example 109], for which the “Inhibition of the swelling (%), after administration of 10 mg/kg i.p.” value in assay [1] is on record as 34%. In addition, the pIC50 in assay [2] was 5.30. Consider `CC12c3ccccc3C(C)(c3ccccc31)C1C(=O)N(CCCN3CCN(c4ccc(F)cc4)CC3)C(=O)C12` (stereo not shown) [Example 110], for which the pIC50 in assay [2] is 5.70.

With `O=C1C2C(C(=O)N1CCCN1CCN(c3ccc(F)cc3)CC1)C1(Br)c3ccccc3C2(Br)c2ccccc21` (stereo not shown) [Example 111], in assay [2], the negative-log IC50 (pIC50) was 5.00. As for `O=C1C2C(CN1CCCN1CCN(c3ccc(F)cc3)CC1)C1(Cl)c3ccccc3C2(Cl)c2ccccc21` (stereo not shown) [Example 112], the pIC50 in assay [2] (Homo sapiens, T-cell) is 5.30.

Regarding `O=C1C2C3c4ccccc4C(CCl)(c4ccccc43)C2CN1CCCN1CCN(c2ccc(F)cc2)CC1` (stereo not shown) [Example 113], in assay [2] (Homo sapiens, T-cell), the pIC50 is 5.70. Against the preceding compound, the pIC50 is 0.40 log units higher.

In assay [2] (Homo sapiens, T-cell), `O=C1C2C(CN1CCCN1CCN(c3ccc(F)cc3)CC1)C1c3ccccc3C2(c2ccccc2)c2ccccc21` (stereo not shown) [Example 114] gave a negative-log IC50 (pIC50) of 5.70. Same read-out and setting: then `O=C1C2C3c4ccccc4C(c4ccccc43)C2CN1CCCN1CCN(c2cc(Cl)cc(Cl)c2)CC1` (stereo not shown) [Example 115], with 5.70; and `O=C1C2C(CN1CCCN1CCN(c3ccccc3)CC1)C1(Cl)c3ccccc3C2(Cl)c2ccccc21` (stereo not shown) [Example 116], with 5.70. On the same count and under the same terms, with `O=C1N(CCCN2CCN(c3ccc(F)cc3)CC2)CC2C3c4ccccc4C(c4ccccc43)C12c1ccccc1` (stereo not shown) [Example 117] the figure was 5.70.

Values taken from patent US5409932A, “Piperazine-substituted pyrroloanthracenes” (Bayer AG, priority 1993, dated 1995).
